Measurements reported in patent publication US11925656B2, “Biological total joint replacement” (priority 2014, dated 2024).

Experiments:
TNF-alpha = TNF-alpha in synovial fluid by ELISA, rabbit arthritis model; assay type: in vivo; conditions: therapeutic groups, oral 4 weeks, vs control; not statistically significant
Excerpt: (§1) The study was approved by the Institutional Animal Care and Use Committee (IACUC) of Thomas D. Morris, Inc. 28 New Zeeland White rabbits were selected for the study. Six such were randomly assigned to one of four groups; prophylactic cyanidin-3-glycoside (C3G)(referred to figures as Cl 1-42), prophylactic protocatechuic acid (PCA)(referred to in figures as PCA 1-42), therapeutic C3G (referred to in figures as Cl 42-70), and therapeutic PCA (referred to in figures as PCA 42-70). There were four controls, two each to the prophylactic and therapeutic groups.
(§2) The prophylactic groups were given PROC3G™ by Chromadex™ at a dose of 30 mg/kg of body weight of either C3G or PCA by mouth, 7 times per week for 42 days. The therapeutic groups' treatment was initiated on day 42 with a daily dose of PROC3G™ by Chromadex™ 7 times per week for 4 weeks. The dose of 30 mg of cyanidin-3-glucoside per kg of body weight calculates to be 0.177 millimoles per kg body weight. The dose of PCA was the same in terms of millimoles per kg body weight.
(§3) The experimental rabbits underwent surgery with an intent to create a severe degenerative arthritis by cutting the medial collateral ligament, the anterior cruciate ligament and removing the medial meniscus. […]
(§4) Synovial Fluid—Detected by ELISA

lymphocytes = experiment: Number of lymphocytes in synovial fluid, rabbit arthritis model; assay type: in vivo; conditions: therapeutic groups, oral days 42-70, vs control
Excerpt: as §1, §2
(§5) The experimental rabbits underwent surgery with an intent to create a severe degenerative arthritis by cutting the medial collateral ligament, the anterior cruciate ligament and removing the medial meniscus. A partial thickness laceration was made longitudinally on the lateral femoral condyle for future assessment of potential for repair. The surgery was performed by two licensed veterinarians. One surgeon was very experienced. The other surgeon was a recent graduate.
(§6) At necropsy, the synovial fluid was harvested percutaneously and upon arthrotomy. The synovium was harvested from posterior compartment. The patella and adjacent synovium was procured as a separate specimen as was the medial and lateral condyle.
In addition to testing for the increase or decrease of various factors and cytokines, tests were run to count the number of white blood cells, including polymorphonuclear leukocytes (PMN), macrophages (Mac) and lymphocytes (Lym). […]

C-reactive protein (CRP) = C-reactive protein (CRP) in plasma after knee surgery; assay type: in vivo, rabbit
Method: C-reactive protein (CRP) is a protein found in the blood plasma, the levels of which rise in response to inflammation (i.e., C-reactive protein is an acute-phase protein). Its physiological role is to bind to phosphocholine expressed on the surface of dead or dying cells (and some types of bacteria) in order to activate the complement system via the C1Q complex. CRP rises within two hours of the onset of inflammation, up to a 50,000-fold, and peaks at 48 hours. […] CRP is thus a screen for inflammation.
Knee surgery was performed to create a severe irreparable degenerative knee joint, which in turn elevated the CRP in the plasma to average of […]. A historical normal amount of CRP is 3.15 micrograms/mL. See Sun H, et al., Am J Pathol. October 2005; 167(4): 1139-1148. Rabbit CRP levels are close to the mean values of healthy middle-aged humans (2.82 mg/L) reported in the literature. See Ockene I S, et al., Clin Chem. 2001; 47:444-450.
The controls in the study were animals that had surgery and received no treatment. The prophylaxis test groups had the surgery and received 6 weeks of oral C-3-G or PCA 7 times per week as described in example 1. The therapeutic treatment group had surgery, received no treatment for 41 days and then at day 42 received oral C-3-G or PCA 7 times per week as described in example 1.

MMP-3 = MMP-3 expression in cartilage, histochemical staining and scoring, rabbit arthritis model; assay type: in vivo
Excerpt: as §1, §2, §5, §6
(§7) The synovial fluid and half of the synovium was frozen and sent to BioBoston Laboratory for chemical analysis. The other half of the synovium and bone was sent to McClinchery Histology in Stockbridge, Mich. for histological preparation and staining. Patellar slides were sent to BioBoston Contract Laboratories for histochemical staining and ICRS grading. Sample slides were examined for Lubricin at Myron Spector laboratory.
MMP3 is known as matrix metallopeptidase 3, or stromelysin 1 or progelatinase. Proteins of the matrix metalloproteinase (MMP) family are involved in the breakdown of 20 extracellular matrix in normal physiological processes, such as embryonic development, reproduction, and tissue remodeling, as well as in disease processes, such as arthritis and metastasis. […] See FIG. 2C. • Synovial Tissue (Synovium)—Detected by ELISA • MMP-3 levels were reduced in all four groups. See FIG. 9B. • Synovial Tissue (Synovium)—Gene Expression Level Detected by Real-Time PCR • MMP-3 gene expression was decreased in all groups. See FIG. 13A. • Histochemical Scoring Analysis

lubricin = experiment: Lubricin in synovium by ELISA, rabbit arthritis model; assay type: in vivo
Excerpt: as §1, §2, §5, §6
(§8) The synovial fluid and half of the synovium was frozen and sent to BioBoston Laboratory for chemical analysis. The other half of the synovium and bone was sent to McClinchery Histology in Stockbridge, Mich. for histological preparation and staining. […]
(§9) Synovial Tissue (Synovium)—Detected by ELISA

IL-1 beta = IL-1 beta in synovium by ELISA, rabbit arthritis model; assay type: in vivo; conditions: therapeutic groups, oral days 42-70, vs control
Excerpt: as §1
(§10) The prophylactic groups were given PROC3G™ by Chromadex™ at a dose of 30 mg/kg of body weight of either C3G or PCA by mouth, 7 times per week for 42 days. The therapeutic groups' treatment was initiated on day 42 with a daily dose of PROC3G™ by Chromadex™ 7 times per week for 4 weeks. The dose of 30 mg of cyanidin-3-glucoside per kg of body weight calculates to be 0.177 millimoles per kg body weight. The dose of PCA was the same in terms of millimoles per kg body weight. […]
Interleukin-1 beta (IL-1p) also known as catabolic, is a cytokine protein. […] Increased production of IL-1B causes a number of different auto-inflammatory syndromes. • Synovial Fluid—Detected by ELISA • Levels of IL-1 beta were decreased in all groups. See FIG. 2A. • Synovial Tissue (Synovium)—Detected by ELISA

IGF-1 = IGF-1 in plasma, rabbit arthritis model; assay type: in vivo; conditions: control group 25 PG/ML
Excerpt: as §1, §2, §5
Blood testing was performed prior to necropsy on C3G, PCA, glucose, MMP-3 and IGF-1 to assess any systemic effects.

ADAMTS-5 = ADAMTS-5 in synovial fluid by ELISA, rabbit arthritis model; assay type: in vivo
Excerpt: as §1, §2, §5, §6, §8, §4

MMP-1 = MMP-1 in synovium by ELISA, rabbit arthritis model; assay type: in vivo; conditions: therapeutic group, oral days 42-70, vs control
Excerpt: as §1, §2
as §5, with “The surgery was performed by two licensed veterinarians. One surgeon was very experienced. The other surgeon was a recent graduate.” left out

MMP3 = MMP3 in synovial fluid by ELISA, rabbit arthritis model; assay type: in vivo; conditions: therapeutic groups, oral days 42-70, vs control
Excerpt: as §1, §10
MMP3 is known as matrix metallopeptidase 3, or stromelysin 1 or progelatinase. […] See FIG. 2C. • Synovial Tissue (Synovium)—Detected by ELISA • MMP-3 levels were reduced in all four groups. See FIG. 9B. • Synovial Tissue (Synovium)—Gene Expression Level Detected by Real-Time PCR • MMP-3 gene expression was decreased in all groups. […]

MMP-13 = MMP-13 in synovium by ELISA, rabbit surgically induced knee arthritis; assay type: in vivo; conditions: vs untreated control, not statistically significant
Excerpt: as §1, §2, §5, §6, §7, §9

ADAMTS-5 gene expression = ADAMTS-5 gene expression in synovium by real-time PCR, rabbit arthritis model; assay type: in vivo; conditions: therapeutic groups, oral days 42-70, vs control
Excerpt: as §1, §2, §3
Synovial Tissue (Synovium)—Gene Expression Level Detected by Real-Time PCR

TGF-beta = TGF-beta in synovium by ELISA, rabbit arthritis model; assay type: in vivo; conditions: therapeutic group, oral days 42-70, vs control
Excerpt: as §1
The prophylactic groups were given PROC3G™ by Chromadex™ at a dose of 30 mg/kg of body weight of either C3G or PCA by mouth, 7 times per week for 42 days. The therapeutic groups' treatment was initiated on day 42 with a daily dose of PROC3G™ by Chromadex™ 7 times per week for 4 weeks. […]
TGF-β induces apoptosis in numerous cell types. […] It is a type of cytokine which plays a role in immunity, cancer, bronchial asthma, heart disease, diabetes, hereditary hemorrhagic telangiectasia, Marfan syndrome, vascular Ehlers-Danlos syndrome Loeys-Dietz syndrome, Parkinson's disease, and AIDS. • Synovial Fluid—Detected by ELISA • TGF-beta was decreased in all groups. See FIG. 2B. • Synovial Tissue (Synovium)—Detected by ELISA • TGF-beta was increased in the C3G therapeutic group.

TIMP-1 = TIMP-1 in synovial fluid by ELISA, rabbit arthritis model; assay type: in vivo; conditions: statistical significance not evident
Excerpt: as §1, §2, §3, §4

[1] = prophylactic groups, oral days 1-42
[2] = prophylactic groups, oral days 1-42, vs control
[3] = therapeutic groups, oral days 42-70
[4] = therapeutic groups, oral days 42-70, vs control

SMILES: OC[C@H]1O[C@@H](Oc2cc3c(O)cc(O)cc3[o+]c2-c2ccc(O)c(O)c2)[C@H](O)[C@@H](O)[C@@H]1O [C3G, cyanidin-3-glucoside, reference compound]
- TNF-alpha levels in synovial fluid (TNF-alpha): slight increase
- number of lymphocytes in synovial fluid (lymphocytes): decreased
- CRP, an indicator of inflammation (C-reactive protein (CRP); given by oral route immediately after injury): kept to normal levels
- plasma CRP level (C-reactive protein (CRP); prophylaxis test group, 6 weeks oral treatment from surgery, untreated control at 42 days 8.8 mg/mL): 3.1 micrograms/mL
- plasma CRP level (C-reactive protein (CRP); therapeutic group, no treatment for 6 weeks after surgery, then 4 weeks oral treatment): 28.3 mg/mL
- histochemical staining for the presence of MMP-3 in cartilage (MMP-3; [1]): very minimal positive stain
- MMP-3 expression in cartilage (MMP-3; [2]): reduced
- histochemical staining for the presence of MMP-3 in cartilage (MMP-3; [3]): no staining
- MMP-3 expression in cartilage (MMP-3; [4]): reduced
- lubricin in synovium (lubricin; [2]): increased
- lubricin in synovium (lubricin; [4]): increased
- levels of IL-1 beta in synovium (IL-1 beta): decreased
- IGF-1 in the plasma (IGF-1; [1]): 15.8 pg/mL
- IGF-1 in the plasma (IGF-1; [3]): 28.5 pg/mL
- ADAMTS-5 in synovial fluid (ADAMTS-5; [2]): decreased
- ADAMTS-5 in synovial fluid (ADAMTS-5; [4]): decreased
- MMP-1 in synovium (MMP-1): decrease
- MMP3 in synovial fluid (MMP3): decreased
- MMP-13 levels in synovium (MMP-13; prophylactic groups, oral 7 times per week days 1-42 (C3G 30 mg/kg, PCA 26.4 mg/kg)): increased slightly
- MMP-13 levels in synovium (MMP-13; therapeutic groups, oral 7 times per week days 42-70 (C3G 30 mg/kg, PCA 26.4 mg/kg)): slightly decreased
- ADAMTS-5 gene expression in synovium (ADAMTS-5 gene expression): decreased
- TGF-beta in synovium (TGF-beta): increased
- TIMP-1 levels in synovial fluid (TIMP-1; [2]): elevated
- TIMP-1 levels in synovial fluid (TIMP-1; [4]): elevated
